From the supplement of paper PMC10733146

Experiments:
Experiment in all cases: viability relative to DMSO control (fraction); higher = less drug effect (more viable cells)
Settings in all cases: 48 h
[1] = tested on: primary ALL patient cells (S048)
Method in brief: (§1)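 Using 384-well plates with compounds already plated at five concentrations, one well per concentration, 4 × 10^4 primary mononuclear tumour cells were added per well. Cells were Ficoll-isolated from blood or bone marrow or came from processed lymph node, fresh or cryopreserved. They were kept for 48 h at 37 °C and 5% CO2 in RPMI-1640 supplemented with penicillin/streptomycin, L-glutamine and human serum, and viability was read as CellTiter-Glo luminescence relative to the median of 16 inner DMSO wells.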

[2] = tested on: primary AML patient cells (S002)
Method in brief: as §1

[3] = tested on: primary AML patient cells (S012)
Method in brief: as §1

[4] = tested on: primary AML patient cells (S017)
Method in brief: as §1

[5] = tested on: primary AML patient cells (S019)
Method in brief: as §1

[6] = tested on: primary AML patient cells (S025)
Method in brief: as §1

[7] = tested on: primary AML patient cells (S037)
Method in brief: as §1

[8] = tested on: primary AML patient cells (S056)
Method in brief: as §1

[9] = tested on: primary AML patient cells (S071)
Method in brief: as §1

[10] = tested on: primary AML patient cells (S072)
Method in brief: as §1

[11] = tested on: primary AML patient cells (S079)
Method in brief: as §1

[12] = tested on: primary AML patient cells (S085)
Method in brief: as §1

[13] = tested on: primary AML patient cells (S089)
Method in brief: as §1

[14] = tested on: primary AML patient cells (S091)
Method in brief: as §1

[15] = tested on: primary BL patient cells (S005)
Method in brief: as §1

[16] = tested on: primary CLL patient cells (S031)
Method in brief: as §1

[17] = tested on: primary CLL patient cells (S043)
Method in brief: as §1

[18] = tested on: primary FL patient cells (S022)
Method in brief: as §1

[19] = tested on: primary MCL patient cells (S053)
Method in brief: as §1

[20] = tested on: primary MCL patient cells (S068)
Method in brief: as §1

`CC[C@H](Nc1ncnc2[nH]cnc12)c1nc2cccc(F)c2c(=O)n1-c1ccccc1` [Idelalisib] gave a viability ([1]; 0.0032 µM) of 1.01, a viability ([1]; 0.016 µM) of 0.934 and a viability ([1]; 0.08 µM) of 0.861. The viability ([1]; 0.4 µM) was 0.751, the viability ([1]; 2 µM) was 0.752 and the viability ([2]; 0.0032 µM) was 0.969. The viability ([2]; 0.016 µM) was 1.02, the viability ([2]; 0.08 µM) was 0.957 and the viability ([2]; 0.4 µM) was 0.924. For the same compound, the viability ([2]; 2 µM) was 0.785, the viability ([3]; 0.0032 µM) was 1.02 and the viability ([3]; 0.016 µM) was 0.982. For the same compound, the viability ([3]; 0.08 µM) was 1.18, the viability ([3]; 0.4 µM) was 1.04 and the viability ([3]; 2 µM) was 1.06. For the same compound, the viability ([4]; 0.0032 µM) was 1.09, the viability ([4]; 0.016 µM) was 1.1 and the viability ([4]; 0.08 µM) was 1.16. The viability ([4]; 0.4 µM) was 0.988, the viability ([4]; 2 µM) was 0.808 and the viability ([5]; 0.0032 µM) was 1.02. The viability ([5]; 0.016 µM) was 0.936, the viability ([5]; 0.08 µM) was 1.01 and the viability ([5]; 0.4 µM) was 1.13. For the same compound, the viability ([5]; 2 µM) was 0.996, the viability ([6]; 0.0032 µM) was 0.92 and the viability ([6]; 0.016 µM) was 0.935. It also gave a viability ([6]; 0.08 µM) of 0.959, a viability ([6]; 0.4 µM) of 1.14 and a viability ([6]; 2 µM) of 0.924. The viability ([7]; 0.0032 µM) was 0.976, the viability ([7]; 0.016 µM) was 1.03 and the viability ([7]; 0.08 µM) was 1.03. For the same compound, the viability ([7]; 0.4 µM) was 1.81, the viability ([7]; 2 µM) was 0.983 and the viability ([8]; 0.0032 µM) was 1.02. For the same compound, the viability ([8]; 0.016 µM) was 1.02, the viability ([8]; 0.08 µM) was 0.954 and the viability ([8]; 0.4 µM) was 0.896. The viability ([8]; 2 µM) was 0.911, the viability ([9]; 0.0032 µM) was 0.959 and the viability ([9]; 0.016 µM) was 0.868. The viability ([9]; 0.08 µM) was 0.812, the viability ([9]; 0.4 µM) was 0.733 and the viability ([9]; 2 µM) was 0.662. The viability ([10]; 0.0032 µM) was 0.995, the viability ([10]; 0.016 µM) was 0.883 and the viability ([10]; 0.08 µM) was 0.922. The viability ([10]; 0.4 µM) was 0.82, the viability ([10]; 2 µM) was 0.803 and the viability ([11]; 0.0032 µM) was 1.01. For the same compound, the viability ([11]; 0.016 µM) was 0.954, the viability ([11]; 0.08 µM) was 0.906 and the viability ([11]; 0.4 µM) was 0.844. The viability ([11]; 2 µM) was 0.793, the viability ([12]; 0.0032 µM) was 1.04 and the viability ([12]; 0.016 µM) was 0.844. The viability ([12]; 0.08 µM) was 0.788, the viability ([12]; 0.4 µM) was 0.82 and the viability ([12]; 2 µM) was 0.755. For the same compound, the viability ([13]; 0.0032 µM) was 0.965, the viability ([13]; 0.016 µM) was 0.739 and the viability ([13]; 0.08 µM) was 0.924. The viability ([13]; 0.4 µM) was 0.671, the viability ([13]; 2 µM) was 0.58 and the viability ([14]; 0.0032 µM) was 0.929. The viability ([14]; 0.016 µM) was 0.838, the viability ([14]; 0.08 µM) was 0.773 and the viability ([14]; 0.4 µM) was 0.697. The viability ([14]; 2 µM) was 0.558, the viability ([15]; 0.0032 µM) was 1 and the viability ([15]; 0.016 µM) was 0.95. For the same compound, the viability ([15]; 0.08 µM) was 0.982, the viability ([15]; 0.4 µM) was 1.01 and the viability ([15]; 2 µM) was 0.86. The viability ([16]; 0.0032 µM) was 0.974, the viability ([16]; 0.016 µM) was 0.861 and the viability ([16]; 0.08 µM) was 0.731. It also gave a viability ([16]; 0.4 µM) of 0.654, a viability ([16]; 2 µM) of 0.569 and a viability ([17]; 0.0032 µM) of 0.909. It also gave a viability ([17]; 0.016 µM) of 0.805, a viability ([17]; 0.08 µM) of 0.719 and a viability ([17]; 0.4 µM) of 0.745. It also gave a viability ([17]; 2 µM) of 0.691, a viability ([18]; 0.0032 µM) of 1.05 and a viability ([18]; 0.016 µM) of 1.09. It also gave a viability ([18]; 0.08 µM) of 0.955, a viability ([18]; 0.4 µM) of 0.939 and a viability ([18]; 2 µM) of 0.929. For the same compound, the viability ([19]; 0.0032 µM) was 1.02, the viability ([19]; 0.016 µM) was 0.96 and the viability ([19]; 0.08 µM) was 0.946. The viability ([19]; 0.4 µM) was 0.877, the viability ([19]; 2 µM) was 0.815 and the viability ([20]; 0.0032 µM) was 0.888. The viability ([20]; 0.016 µM) was 0.755, the viability ([20]; 0.08 µM) was 0.663 and the viability ([20]; 0.4 µM) was 0.612. For the same compound, the viability ([20]; 2 µM) was 0.558.

With `CS(=O)(=O)c1ccc(C(=O)Nc2ccc(Cl)c(-c3ccccn3)c2)c(Cl)c1` [Vismodegib] the viability ([1]; 0.024 µM) was 0.921, the viability ([1]; 0.12 µM) was 0.941 and the viability ([1]; 0.6 µM) was 0.933. The viability ([1]; 3 µM) was 0.948, the viability ([1]; 15 µM) was 1.1 and the viability ([2]; 0.024 µM) was 0.854. It also gave a viability ([2]; 0.12 µM) of 0.923, a viability ([2]; 0.6 µM) of 0.862 and a viability ([2]; 3 µM) of 0.957. The viability ([2]; 15 µM) was 0.87, the viability ([3]; 0.024 µM) was 0.993 and the viability ([3]; 0.12 µM) was 1. The viability ([3]; 0.6 µM) was 0.995, the viability ([3]; 3 µM) was 0.936 and the viability ([3]; 15 µM) was 1. For the same compound, the viability ([4]; 0.024 µM) was 0.901, the viability ([4]; 0.12 µM) was 0.922 and the viability ([4]; 0.6 µM) was 0.907. For the same compound, the viability ([4]; 3 µM) was 0.927, the viability ([4]; 15 µM) was 0.955 and the viability ([5]; 0.024 µM) was 0.903. For the same compound, the viability ([5]; 0.12 µM) was 0.997, the viability ([5]; 0.6 µM) was 0.855 and the viability ([5]; 3 µM) was 0.873. For the same compound, the viability ([5]; 15 µM) was 0.989, the viability ([6]; 0.024 µM) was 0.963 and the viability ([6]; 0.12 µM) was 0.984. It also gave a viability ([6]; 0.6 µM) of 0.955, a viability ([6]; 3 µM) of 0.89 and a viability ([6]; 15 µM) of 0.902. The viability ([7]; 0.024 µM) was 0.927, the viability ([7]; 0.12 µM) was 0.979 and the viability ([7]; 0.6 µM) was 0.91. For the same compound, the viability ([7]; 3 µM) was 0.958, the viability ([7]; 15 µM) was 1.02 and the viability ([8]; 0.024 µM) was 0.986. For the same compound, the viability ([8]; 0.12 µM) was 1.07, the viability ([8]; 0.6 µM) was 0.913 and the viability ([8]; 3 µM) was 0.783. It also gave a viability ([8]; 15 µM) of 0.845, a viability ([9]; 0.024 µM) of 0.865 and a viability ([9]; 0.12 µM) of 0.899. The viability ([9]; 0.6 µM) was 0.879, the viability ([9]; 3 µM) was 0.906 and the viability ([9]; 15 µM) was 0.891. For the same compound, the viability ([10]; 0.024 µM) was 0.969, the viability ([10]; 0.12 µM) was 0.954 and the viability ([10]; 0.6 µM) was 0.903. For the same compound, the viability ([10]; 3 µM) was 0.902, the viability ([10]; 15 µM) was 0.927 and the viability ([11]; 0.024 µM) was 0.897. For the same compound, the viability ([11]; 0.12 µM) was 0.894, the viability ([11]; 0.6 µM) was 0.899 and the viability ([11]; 3 µM) was 0.871. It also gave a viability ([11]; 15 µM) of 0.818, a viability ([12]; 0.024 µM) of 0.89 and a viability ([12]; 0.12 µM) of 0.925. The viability ([12]; 0.6 µM) was 0.928, the viability ([12]; 3 µM) was 0.952 and the viability ([12]; 15 µM) was 1.05. It also gave a viability ([13]; 0.024 µM) of 0.87, a viability ([13]; 0.12 µM) of 0.881 and a viability ([13]; 0.6 µM) of 0.93. The viability ([13]; 3 µM) was 0.98, the viability ([13]; 15 µM) was 0.642 and the viability ([14]; 0.024 µM) was 0.973. For the same compound, the viability ([14]; 0.12 µM) was 0.901, the viability ([14]; 0.6 µM) was 0.997 and the viability ([14]; 3 µM) was 0.996. The viability ([14]; 15 µM) was 0.893, the viability ([15]; 0.024 µM) was 1.12 and the viability ([15]; 0.12 µM) was 0.893. The viability ([15]; 0.6 µM) was 1.12, the viability ([15]; 3 µM) was 1.14 and the viability ([15]; 15 µM) was 0.824. The viability ([16]; 0.024 µM) was 0.85, the viability ([16]; 0.12 µM) was 0.996 and the viability ([16]; 0.6 µM) was 0.889. For the same compound, the viability ([16]; 3 µM) was 0.867, the viability ([16]; 15 µM) was 0.897 and the viability ([17]; 0.024 µM) was 0.915. The viability ([17]; 0.12 µM) was 0.903, the viability ([17]; 0.6 µM) was 0.923 and the viability ([17]; 3 µM) was 0.922. It also gave a viability ([17]; 15 µM) of 0.965, a viability ([18]; 0.024 µM) of 0.868 and a viability ([18]; 0.12 µM) of 0.958. For the same compound, the viability ([18]; 0.6 µM) was 0.886, the viability ([18]; 3 µM) was 0.911 and the viability ([18]; 15 µM) was 0.971. For the same compound, the viability ([19]; 0.024 µM) was 0.915, the viability ([19]; 0.12 µM) was 0.932 and the viability ([19]; 0.6 µM) was 0.893. The viability ([19]; 3 µM) was 0.9, the viability ([19]; 15 µM) was 1.05 and the viability ([20]; 0.024 µM) was 0.891. For the same compound, the viability ([20]; 0.12 µM) was 0.929, the viability ([20]; 0.6 µM) was 0.949 and the viability ([20]; 3 µM) was 0.992. It also gave a viability ([20]; 15 µM) of 1.07.
